How the values were obtained:
[1] = test system: CD4^+ T cells expressing DO11.00 TCR; assay: Adoptive transfer of CFSE-stained DO11.10 TCR CD4+ T cells, ovalbumin-induced division (flow cytometry); format: in vivo, mouse; settings: BALB/C mice; oral once a day for four days; inotodiol 20 mg/kg, ethanol extract 320 mg/kg, imatinib 10 mg/kg; five days after ovalbumin injection; FIG. 4(B)
Protocol: (§1) In order to examine the effect of an inotodiol compound or a chaga mushroom extract containing an inotodiol compound on CD4^+ T cell activity regulation, analysis of expression level of cytokine produced by Th2 CD4^+ T cell and adoptive transfer experiments using CD4^+ TCR transgenic T cells that express DO11.00 TCR, i.e., the ovalbumin-derived peptide specific T cell receptor (TCR), were performed.
Experiments to measure a degree of ovalbumin-derived peptide specific T cell immune response from an animal experiment were performed as follows. Cells were isolated from the lymph nodes of transgenic mice expressing DO11.10TCR. The isolated cells were fluorescence-stained with carboxyfluorescein succinimidyl ester (CFSE), and 2×10^6 cells were injected intravenously into BALB/C mice. Cells were injected intraperitoneally with ovalbumin (50 μg) and alum to induce division of CD4^+ T cells expressing DOII.00 TCR. Oral administration of 20 mg/kg of the inotodiol compound, 320 mg/kg of the chaga mushroom ethanol extract, 10 mg/kg of dexamethasone, 10 mg/kg of imatinib, or 20 mg/kg of the cholesterol was performed once a day for four days starting from one day after ovalbumin injection. After five days of ovalbumin injection, the cells were isolated from BALB/C lymph nodes, stained with anti-CD4 antibody and anti-DO11.10 antibody, and measured CFSF fluorescence intensity of the CD4^+ T cell expressing DOII.00 TCR using flow cytometry to determine the cell division degree. Then, the number of cells was measured. Here, the CFSF fluorescence intensity decreased as the cell division increases.

[2] = test system: mast cell degranulation (MCPT-1); assay: Passive systemic anaphylaxis: MCPT-1 in blood; format: in vivo, mouse; settings: passive systemic anaphylaxis (anti-DNP-IgE, DNP-BSA i.v.); oral once a day for 3 days; inotodiol 20, ethanol extract 320, cholesterol 20, dexamethasone 10, imatinib 20 mg/kg; FIG. 5(B)
Protocol: (§2) On the third day after oral administration, 3 μg of anti-dinitrophenol (DNP)-IgE was intravenously injected, and after 24 hours, mast cell degranulation was induced by intravenous injection of 80 μg of DNP-conjugated bovine serum albumin (BSA). The rectal temperature of mice induced mast cell degranulation was measured, and the amount of MCPT-1 in the blood was analyzed.

[3] = test system: food allergy-induced mouse model; assay: Anaphylaxis symptom score in ovalbumin food allergy mouse model; format: in vivo; settings: ovalbumin food allergy BALB/C mice; oral daily; inotodiol, dexamethasone, cholesterol 20 mg/kg; extract and fractions 320 mg/kg; score 0-4 (Table 3); FIG. 1(B)
Protocol: (§3) To prepare allergy mouse models, 5-week-old male BALB/C mice were used. Food allergy models were prepared using ovalbumin of chicken as an allergy-inducing material (allergen).
(§4) For immunization of the mice, 20 μg of ovalbumin was mixed with 2 mg of alum, and the mixture was intraperitoneally injected to the mice two times every two weeks. Food allergy induction was induced by performing the second immunization injection and two weeks thereafter, 50 mg of ovalbumin was orally administered thereto five times every three days to cause an allergic response. […] Here, as a positive control, a mice group was used to which dexamethasone was administered every day. 50 mg of ovalbumin alone or the chaga mushroom extract, the fraction, or the inotodiol compound was lastly administered thereto, followed by observation on symptoms caused by allergy one hour thereafter.

[4] = test system: mast cell degranulation; assay: Passive systemic anaphylaxis: rectal temperature; format: in vivo, mouse; settings: passive systemic anaphylaxis (anti-DNP-IgE, DNP-BSA i.v.); oral once a day for 3 days; inotodiol 20 mg/kg, ethanol extract 320 mg/kg; FIG. 5(A)
Protocol: as §2

[5] = test system: cytokine produced by Th2 CD4^+ T cells (IL-5, IL-13, IFN-γ); assay: Cytokine production by mesenteric lymph node cells of treated food allergy mice (ELISA); format: in vivo, mouse; settings: mLN cells of treated food allergy mice cultured three days with 100 μg/mL ovalbumin (OVA); FIG. 4(A)
Protocol: as §1
For the expression of cytokine, a sample was treated in the same manner as in Experimental Example 1, and the cells were isolated from the mesenteric lymph node (mLN) of mice of each group after one day. At this time, a group treated with 10 mg/kg of dexamethasone, a group treated with 20 mg/kg of imatinib (Gleevec), which is used as a mast cell […] therapeutic agent, and a group treated with 20 mg/kg of cholesterol that is similar in structure to the inotodiol compound were added. The isolated cells were dispensed into wells of a 96-well plate at a rate of 1×10^6 cells/well. RPMI complete medium (containing 10% fetal bovine serum (FBS), penicillin, streptomycin, and glutamine) containing ovalbumin or RPMI complete medium containing 100 μg/mL of ovalbumin was inoculated and culture for three days under a condition of 37° C. and 5% CO2. […]

[6] = test system: mast cells in small intestine; assay: Number of mast cells in small intestine (toluidine staining), food allergy mouse model; format: in vivo; settings: ovalbumin food allergy BALB/C mice; toluidine stained small intestine sections; FIG. 2(B)
Protocol: as §3, §4

[7] = test system: food allergy-induced mouse model; assay: Stool observation (diarrhea score) in ovalbumin food allergy mouse model; format: in vivo; settings: ovalbumin food allergy BALB/C mice; oral daily; inotodiol, dexamethasone, cholesterol 20 mg/kg; extract and fractions 320 mg/kg; score 0-4 (Table 4); FIG. 1(C)
Protocol: as §3, §4

[8] = test system: egg white protein-specific IgE; assay: Serum IgE concentration by ELISA, food allergy mouse model; format: in vivo; settings: ovalbumin food allergy BALB/C mice, serum one day after last administration, FIG. 3(A)
Protocol: as §4

[9] = test system: eosinophils in small intestine; assay: Eosinophil infiltration in small intestine (H&E staining), food allergy mouse model; format: in vivo; settings: ovalbumin food allergy BALB/C mice; H&E stained small intestine sections; FIG. 2(A)
Protocol: as §3, §4
The mice of each experimental group in Experimental Example 1 were anesthetized and cut the abdomen. Then, the small intestine was removed, fixed with formalin, treated with paraffin, permeated with paraffin, and microsectioned using microtome, thereby obtaining tissue sections. The obtained small intestine sections were stained with hematoxylin and eosin (H&E) to observe eosinophil cells.

[10] = test system: mast cell protease-1 (MCPT-1); assay: Serum MCPT-1 concentration by ELISA, food allergy mouse model; format: in vivo; settings: ovalbumin food allergy BALB/C mice, serum one day after last administration, FIG. 3(B)
Protocol: as §4

Compound | CFSE fluorescence intensity of CD4+ T cell expressing DO11.00 TCR (cell division degree) [1] | number of CD4+ T cells expressing DO11.00 TCR [1] | concentration of MCPT-1 in the blood after induced mast cell degranulation [2] | anaphylaxis score [3] | rectal temperature after induced mast cell degranulation [4] | amount of IL-5, IL-13, and IFN-γ (cytokine expression by Th2 CD4+ T cells) [5] | number of mast cells in the small intestine [6] | diarrhea symptom score (stool symptom score) [7] | concentration of egg white protein-specific IgE in serum [8] | infiltration of eosinophils in the small intestine (number of stained eosinophil cells) [9] | concentration of MCPT-1 in serum [10]
Cc1ccc(NC(=O)c2ccc(CN3CCN(C)CC3)cc2)cc1Nc1nccc(-c2cccnc2)n1 [Imat., imatinib] | no difference in the CFSE fluorescence intensity and the number of cells, as compared with the unimmune group | no difference in the CFSE fluorescence intensity and the number of cells, as compared with the unimmune group | level of increase in concentration of MCPT-1 was significantly decreased | – | – | – | – | – | – | – | –
CC(C)=CC[C@@H](O)[C@@H](C)[C@H]1CC[C@@]2(C)C3=C(CC[C@]12C)[C@@]1(C)CC[C@H](O)C(C)(C)[C@@H]1CC3 [Inotodiol, inotodiol] | – | significantly increased number of CD4^+T cells | level of increase in concentration of MCPT-1 was significantly decreased | lower anaphylaxis score than the food allergy-induced group | did not decrease the rectal temperature | not substantially different from the expression amount of IL-5, IL-13, and IFN-γ | decreased number of mast cells | lower than that of the food allergy-induced group | no substantial change in the concentration of IgE | decreased infiltration of eosinophils | decreased significantly
CC(C)CCC[C@@H](C)[C@H]1CC[C@H]2[C@@H]3CC=C4C[C@@H](O)CC[C@]4(C)[C@H]3CC[C@]12C [cholesterol, reference compound] | – | – | MCPT-1 did not decrease | – | – | – | little decrease in the number of eosinophils and mast cells | – | – | little decrease in the number of eosinophils and mast cells | –

From patent publication US11896601B2, “Composition for prevention or treatment of allergic disease including inotodiol compound as active ingredient” (CARBOEXPERT INC., priority 2018, dated 2024)
